Results taken from patent US20060052357A1, “Organometallic anti-tumour agent” (priority 2001, published 2006).

Legend:
[1] = tested on: P388/cPt; assay: Drug-resistant leukemia P388/cPt (cisplatin-resistant) survival; assay type: in vivo, mice; conditions: 5 mg/kg, days 1-7
Description: (§1) The therapeutic efficacy was investigated on the leukemia tumor strains L-1210, P-388, and P-388 strains specifically obtained for drug resistance. The lifespan of the animals was set at 60 days in this case. Drug-resistant tumor were obtained by successive transplantation of the leukemia P-388 with ascites cells taken from mice which had been treated with rubomycin (strain P388/ph), vincristine (P388/vcr) and zisplatin (P388/cPt).
(§2) Resistance to the products mentioned appear in the 8th, 6th and 4th generation.
(§3) The products were administered intraabdominally. Cu(acac)2M was dissolved in 10% Twin 80.

[2] = Hydrolysis stability; assay type: physicochemical; conditions: for period of stability (no hydrolysis): 20° C.
Experimental: 0.6 g of (C5H7O2)2—Cu—C13H18Cl2N2O2 was dispersed in 100 ml of water or physiological saline solution with the aid of an ultrasound generator (frequency: 15 kHz, 10 minutes).
0.6 g of (C5H7O2)2—Cu—C13H18Cl2N2O2 was dispersed in 100 ml of 100% olive oil with the aid of an ultrasound generator (frequency: 15 kHz, 10 minutes).
0.1 g of (C5H7O2)2—Cu—C13H18Cl2N2O2 was dispersed in 100 ml of linoleic acid or linolenic acid with the aid of an ultrasound generator (frequency: 15 kHz, 10 minutes).

[3] = tested on: leukemia P-388; assay: Leukemia P-388 survival (original strain); assay type: in vivo, mice
Experimental: as §1
Inoculum: 10^6 cells in 0.2 ml of physiological saline solution. Mice: BDF1. Females 19-21 g
After transplantation of the tumor, the substance MOC.melphalan was administered intraabdominally to the animals in a dosage of 5 mg/kg in 0.3 ml of 10% Twin-80 solution on days 1 to 7. The effect of the substance was assessed on the basis of the lifespan and the weight change of the animals (table 7).
as §3

[4] = tested on: P388/vcr; assay: Drug-resistant leukemia P388/vcr (vincristine-resistant) survival; assay type: in vivo, mice; conditions: 5 mg/kg, days 1-7
Description: as §1, §2, §3

[5] = tested on: AKATON tumor; assay: AKATON small bowel adenocarcinoma, treatment with MOC.melphalan (Example 8); assay type: in vivo, mice; conditions: day 21
Experimental: After transplantation of the AKATON tumor into white crossbred mice, the animals received the substance MOC.melphalan by intraabdominal administration in a dosage of 5 mg/kg in 0.3 ml of physiological solution on days 3, 5, 7 and 9. The animals were sacrificed on day 21 of the investigation and underwent histological, morphological examination (table 14).
After transplantation of the AKATON tumor into white crossbred mice, the animals received the substance MOC.melphalan by intravenous administration in a dosage of 5 mg/kg in 0.3 ml of physiological solution on days 3, 5, 7 and 9. The animals were sacrificed on day 21 of the investigation and underwent histological, morphological examination (table 15).

[6] = tested on: adenocarcinoma; assay: Adenocarcinoma in Balb mice, intraabdominal administration; assay type: in vivo
Experimental: 1) 10 mice of the Balb line, each of which contained an adenocarcinoma, received intraabdominal administration of Cu(acac)2M in a dose of 5 mg/kg in 0.3 ml of physiological saline solution. As control, 10 further mice of the same type with the same tumor were determined without treatment. An average tumor weight of 3.60 g was found in the control mice, while the average tumor weight in the treated mice was 0.3 g. The results for the mice treated according to the invention are indicated, with weight and size of the tumor, in table 1 below.
The average weight of the tumor was 3.60 g.

[7] = tested on: tumor cell cultures (KML); assay: Protein synthesis: inclusion of 3H-amino acids in tumor cell cultures; assay type: cell-based, mice; conditions: 50 μg/ml, incubation 24 hours
Experimental: The effect of the substances on protein synthesis is determined with the aid of the suppression stage through the inclusion of radioactive precursors of amino acids (totaled mixture of ^3H-amino acids). 1 million cells in a “log phase” were selected for this. The complexes were introduced in a dosage of 50 μg/ml and, in parallel, the amino acids with an activity of 10 mCi/ml were introduced into 10 ml bottles. After incubation for 24 hours, the cells were washed out from the cultivation nutrient medium, and a lysis (disruption) was carried out. The radioactivity of the proteins was determined in a […] (table 25).

[8] = tested on: S-180 sarcoma tumor cells; assay: DNA concentration in S-180 sarcoma tumor cells after incubation; assay type: cell-based, mice; conditions: 0.05 mg/10^6 cells; for DNA concentration: 37° C., control 106; for DNA concentration/control: control 100
Experimental: S-180 sarcoma tumor cells (20·10^6 cells/investigation) were incubated with the substance MOC.melphalan in a concentration of 0.05 mg/10^6 cells at a temperature of 37° C. for 40 or 60 min (see table 16).
The DNA concentration was determined using the phenol-chloroform method of MANIATIS (Maniatis, Frin, Sämbruck Methods of genetic engineering, Molecular Cloning, M.: MIR, 1984, pages 479 et seq.). Separation of DNA and RNA was followed by a phoresis in a 2.5% agarose gel (see table 16, FIG. 7).

[9] = tested on: adenocarcinoma; assay: Adenocarcinoma, intravenous administration four times; assay type: in vivo, mice; conditions: 5 mg/kg intravenous four times
Description: 2. Antitumor Activity for Adenocarcinoma and Intra-Venous Administration (Four Times in Physiological Saline Solution)

[10] = 5 mg/kg intraabdominal days 1-7

Compound: CC(=O)C=C(C)[O-].CC(=O)C=C(C)[O-].NC(Cc1ccc(N(CCCl)CCCl)cc1)C(=O)O.[Cu+2] (stereo not shown) [MOC.melphalan, (C5H7O2)2—Cu—C13H18Cl2N2O2]
- ILS % [1]: 193%
- period of stability ([2]; 0.1 g in 100 ml of linoleic acid or linolenic acid, 20° C. in air): 1 year
- period of stability (no hydrolysis) ([2]; 0.6 g in 100 ml of 100% olive oil): more than 2 years
- period of stability (no hydrolysis) ([2]; 0.6 g in 100 ml of water or physiological saline solution): 30 days
- Change in weight [3, 10]: -2.5 g
- Increase in average lifespan [3, 10]: 56.0%
- Number of animals which survived to day 60 ([3]; 5 mg/kg intraabdominal days 1-7, 6 animals): 0
- Average lifespan ([3]; 5 mg/kg intraabdominal days 1-7, control 10.8): 16.8 days
- ILS % ([3]; 5 mg/kg, days 1-7): 56%
- ILS % [4]: 516%
- Number of surviving animals/number of animals in group [4]: 5/6
- Percentage inhibition ([5]; 5 mg/kg intraabdominal days 3, 5, 7, 9): 92%
- Average tumor mass ([5]; 5 mg/kg intraabdominal days 3, 5, 7, 9, control 3.6): 0.3
- Percentage inhibition ([5]; 5 mg/kg intravenous days 3, 5, 7, 9): 80%
- Average tumor mass ([5]; 5 mg/kg intravenous days 3, 5, 7, 9, control 4.4): 0.9 g
- inhibition of the tumor ([6]; Balb mice, 5 mg/kg intraabdominal, compared with control series): 91.9%
- average tumor weight ([6]; Balb mice, 5 mg/kg intraabdominal, control 3.60 g): 0.3 g
- Size of the tumor ([6]; individual treated mice 1-10, 5 mg/kg intraabdominal, listed as Cu(acac)2M): 0 cm
- Suppression of amino acid inclusion [7]: 59%
- DNA concentration ([8]; incubation 40 min): 530 μg/g of cells
- DNA concentration ([8]; incubation 60 min): 53 μg/g of cells
- DNA concentration/control ([8]; incubation 40 min): 498
- DNA concentration/control ([8]; incubation 60 min): 50
- % inhibition [9]: 80%
- Mass of the tumor ([9]; control 4.4): 0.9 g
